Experimental data taken from patent publication US11389447B2 (Janssen Sciences Ireland Unlimited Company, priority 2006, dated 2022).
Read-outs that look alike come from different tables or passages of the source.

What was measured:
[1] = Kinetic study: plasma kinetics of TMC278 after single IM or SC injection of a nanosuspension; type: in vivo, male beagle dogs; settings: male, beagle, dog, plasma, sc, 5 mg/kg; for AUC(0-t) / Cmax / Tmax: single SC 5 mg/kg TMC278 nanosuspension; for Cmax: read-out: Cmax; for Tmax: read-out: Tmax;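 on all read-outs here: healthy male beagle dogs injected in both biceps femoris muscles (IM) or both thoracal sides (SC), total volume 0.2 mL/kg, drug measured in plasma from blood samples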
wild type HIV = settings: cited from earlier work

Compound `Cc1cc(C=CC#N)cc(C)c1Nc1ccnc(Nc2ccc(C#N)cc2)n1` [TMC278, 4-[[4-[[4-(2-cyanoethenyl)-2,6-dimethylphenyl]amino]-2-pyrimidinyl]amino]benzonitrile] has a concentration at 1536 h ([1]; plasma concentration of TMC278, single SC 5 mg/kg TMC278 nanosuspension, dog 19349, 1536 h (d64)) of 2.05 ng/mL, a concentration at 1704 h ([1]; plasma concentration of TMC278, single SC 5 mg/kg TMC278 nanosuspension, dog 19349, 1704 h (d71)) of 3.57 ng/mL and a concentration at 1872 h ([1]; plasma concentration of TMC278, single SC 5 mg/kg TMC278 nanosuspension, dog 19349, 1872 h (d78)) of 1.91 ng/mL. It also gave a concentration at 2040 h ([1]; plasma concentration of TMC278, single SC 5 mg/kg TMC278 nanosuspension, dog 19349, 2040 h (d85)) of 2.82 ng/mL, a concentration at 2208 h ([1]; plasma concentration of TMC278, single SC 5 mg/kg TMC278 nanosuspension, dog 19349, 2208 h (d92)) of 2.49 ng/mL and a concentration at 0 h ([1]; plasma concentration of TMC278, single SC 5 mg/kg TMC278 nanosuspension, mean of 2 dogs, 0 h (d0, predose)) of under 1 ng/mL. For the same compound, the concentration at 1 h ([1]; plasma concentration of TMC278, single SC 5 mg/kg TMC278 nanosuspension, mean of 2 dogs, 1 h) was 1.5 ng/mL, the concentration at 3 h ([1]; plasma concentration of TMC278, single SC 5 mg/kg TMC278 nanosuspension, mean of 2 dogs, 3 h) was 8.19 ng/mL and the concentration at 8 h ([1]; plasma concentration of TMC278, single SC 5 mg/kg TMC278 nanosuspension, mean of 2 dogs, 8 h) was 20.7 ng/mL. It also gave a concentration at 24 h ([1]; plasma concentration of TMC278, single SC 5 mg/kg TMC278 nanosuspension, mean of 2 dogs, 24 h (d1)) of 22.1 ng/mL, a concentration at 48 h ([1]; plasma concentration of TMC278, single SC 5 mg/kg TMC278 nanosuspension, mean of 2 dogs, 48 h (d2)) of 32 ng/mL and a concentration at 72 h ([1]; plasma concentration of TMC278, single SC 5 mg/kg TMC278 nanosuspension, mean of 2 dogs, 72 h (d3)) of 28.4 ng/mL. It also gave a concentration at 144 h ([1]; plasma concentration of TMC278, single SC 5 mg/kg TMC278 nanosuspension, mean of 2 dogs, 144 h (d6)) of 25.8 ng/mL, a concentration at 192 h ([1]; plasma concentration of TMC278, single SC 5 mg/kg TMC278 nanosuspension, mean of 2 dogs, 192 h (d8)) of 20.4 ng/mL and a concentration at 240 h ([1]; plasma concentration of TMC278, single SC 5 mg/kg TMC278 nanosuspension, mean of 2 dogs, 240 h (d10)) of 33.2 ng/mL. For the same compound, the concentration at 312 h ([1]; plasma concentration of TMC278, single SC 5 mg/kg TMC278 nanosuspension, mean of 2 dogs, 312 h (d13)) was 30.3 ng/mL, the concentration at 384 h ([1]; plasma concentration of TMC278, single SC 5 mg/kg TMC278 nanosuspension, mean of 2 dogs, 384 h (d16)) was 19.2 ng/mL and the concentration at 480 h ([1]; plasma concentration of TMC278, single SC 5 mg/kg TMC278 nanosuspension, mean of 2 dogs, 480 h (d20)) was 25.5 ng/mL. For the same compound, the concentration at 648 h ([1]; plasma concentration of TMC278, single SC 5 mg/kg TMC278 nanosuspension, mean of 2 dogs, 648 h (d27)) was 15 ng/mL, the concentration at 696 h ([1]; plasma concentration of TMC278, single SC 5 mg/kg TMC278 nanosuspension, mean of 2 dogs, 696 h (d29)) was 15.8 ng/mL and the concentration at 864 h ([1]; plasma concentration of TMC278, single SC 5 mg/kg TMC278 nanosuspension, mean of 2 dogs, 864 h (d36)) was 9.1 ng/mL. For the same compound, the concentration at 1032 h ([1]; plasma concentration of TMC278, single SC 5 mg/kg TMC278 nanosuspension, mean of 2 dogs, 1032 h (d43)) was 5.63 ng/mL, the concentration at 1200 h ([1]; plasma concentration of TMC278, single SC 5 mg/kg TMC278 nanosuspension, mean of 2 dogs, 1200 h (d50)) was 4.89 ng/mL and the concentration at 1368 h ([1]; plasma concentration of TMC278, single SC 5 mg/kg TMC278 nanosuspension, mean of 2 dogs, 1368 h (d57)) was 3.65 ng/mL. It also gave a concentration at 1536 h ([1]; plasma concentration of TMC278, single SC 5 mg/kg TMC278 nanosuspension, mean of 2 dogs, 1536 h (d64)) of 4.25 ng/mL, a concentration at 1704 h ([1]; plasma concentration of TMC278, single SC 5 mg/kg TMC278 nanosuspension, mean of 2 dogs, 1704 h (d71)) of 3.77 ng/mL and a concentration at 1872 h ([1]; plasma concentration of TMC278, single SC 5 mg/kg TMC278 nanosuspension, mean of 2 dogs, 1872 h (d78)) of 2.79 ng/mL. It also gave a concentration at 2040 h ([1]; plasma concentration of TMC278, single SC 5 mg/kg TMC278 nanosuspension, mean of 2 dogs, 2040 h (d85)) of 5.71 ng/mL, a concentration at 2208 h ([1]; plasma concentration of TMC278, single SC 5 mg/kg TMC278 nanosuspension, mean of 2 dogs, 2208 h (d92)) of 2.77 ng/mL and an AUC(0-t) ([1]; dog 19129, read-out: AUC0-312 h) of 6910 ng·h/mL. For the same compound, the AUC(0-t) ([1]; dog 19129, read-out: AUC0-696 h) was 15900 ng·h/mL, the AUC(0-t) ([1]; dog 19129, read-out: AUC0-2208 h) was 26400 ng·h/mL and the Cmax ([1]; dog 19129) was 34.8 ng/mL. For the same compound, the Tmax ([1]; dog 19129) was 48 h, the AUC(0-t) ([1]; dog 19349, read-out: AUC0-312 h) was 9880 ng·h/mL and the AUC(0-t) ([1]; dog 19349, read-out: AUC0-696 h) was 16700 ng·h/mL. It also gave an AUC(0-t) ([1]; dog 19349, read-out: AUC0-2208 h) of 22400 ng·h/mL, a Tmax ([1]; dog 19349) of 240 h and an AUC(0-t) ([1]; mean of 2 dogs, read-out: AUC0-312 h) of 8400 ng·h/mL. For the same compound, the AUC(0-t) ([1]; mean of 2 dogs, read-out: AUC0-696 h) was 16300 ng·h/mL, the AUC(0-t) ([1]; mean of 2 dogs, read-out: AUC0-2208 h) was 24400 ng·h/mL and the Cmax ([1]; mean of 2 dogs) was 38.4 ng/mL. The Tmax ([1]; mean of 2 dogs) was 144 h and the “activity against wild type HIV (in words)” value (wild type HIV) was “pronounced activity”.
